Results taken from patent US9133207B2, “Tetrandrine derivatives with substituted 5-carbon, preparation method and use thereof” (Hangzhou Bensheng Pharmaceutical Co., Ltd., priority 2011, dated 2015).
In brackets after ≈: the same amount, converted by molar mass.

Experiments:
MG63 (osteosarcoma) = test: Solid tumor cell growth inhibition, MTT, 72 h (Example 7); type: cell-based, human; settings: Homo sapiens; 72 h, MTT, MG-63
Method: (§1) Human solid tumor cell lines: Hep-2 (laryngeal carcinoma), A549 (human lung cancer), CaES-17 (esophageal cancer cell), PC-3 (prostate cancer), CNE (nasopharyngeal carcinoma cell) and SK-OV-3 (ovarian cancer cell), all of which are purchased from China Center For Type Culture Collection; RKO (human colon adenocarcinoma cell), MGC 803 (human gastric cancer cell), MG63 (osteosarcoma), and U87 MG (malignant glioma cell), all of which are purchased from Fuxiang Bio-tech Co. Ltd., Shanghai, China; PANC-1 (pancreatic cancer), Huh? (human liver cancer cell), Becap37 (human breast cancer cell), and Hela (human cervical cancer cell), all of which are donated by Cancer Research Institute of Zhejiang University, China.
(§2) Reagents: the same as in Example 5.
(§3) Obtaining 4000 well-growing human solid tumor cells and inoculating them into wells of a 96-well cell culture plate. The culture medium is DMEM High Glucose cell culture medium containing 10% fetal bovine serum. The plate is placed in a carbon dioxide cell incubator (5% CO2) at 37° C. and incubated for 24 hours. After been added with tetrandrine derivatives of different concentration and mixing uniformly, the plate is placed in a carbon dioxide cell incubator (5% CO2) at 37° C. and incubated for 72 hours. Then the viable cell concentration is determined by the MTT method and the cell viability (%) after drug treatment is calculated. In this experiment, the cell viability of control group (not treated with any compound) is set as 100%.

PC-3 (prostate cancer) = test: as above; type: cell-based, human; settings: Homo sapiens; 72 h, MTT, PC-3
Method: as §1, §2, §3

[1] = system: CaES-17 (esophageal cancer cell); test: as above; type: cell-based, human; settings: Homo sapiens, CaEs17; 72 h, MTT, CAES-17
Method: as §1, §2, §3

[2] = system: PANC-1 (pancreatic cancer); test: as above; type: cell-based, human; settings: Homo sapiens; 72 h, MTT, PANC-1
Method: as §1, §2, §3

[3] = system: Jurkat (acute lymphoblastic leukemia, ALL); test: Leukemia cell growth inhibition, MTT, 72 h (Example 5); type: cell-based, human; settings: Homo sapiens, Jurkat; 72 h, MTT
Source text: (§4) Leukemia cell lines: leukemia cell lines: K562/adr (drug-resistant, chronic myeloid leukemia, CML), NB4 (acute promyelocytic leukemia, AML), Kasumi-1 (acute myeloid leukemia M2 type, AML-M2), Jurkat (acute lymphoblastic leukemia, ALL), all of which are donated by Cancer Research Institute of Zhejiang University, China; and H9 (acute lymphoblastic leukemia, ALL), which is purchased from China Center for Type Culture Collection.
(§5) Reagents: The standard sample of tetrandrine (TTD) is purchased from Ci Yuan Biotechnology Co., Ltd., Shaanxi, China; and the 5-substituted tetrandrine derivatives of the present invention.
(§6) Obtaining 6000 well-growing leukemia cells and inoculating them into wells of a 96-well cell culture plate. The culture medium is a 1640 cell culture medium containing 10% fetal bovine serum. After adding the tetrandrine derivatives of different concentrations and mixing uniformly, placing the plate in a carbon dioxide cell incubator (5% CO2) at 37° C. and incubating for 72 hours. Then the viable cell concentration is determined by the MTT method.

[4] = system: K562/adr (drug-resistant, chronic myeloid leukemia, CML); test: as above; type: cell-based, human; settings: Homo sapiens, K562/Adr; 72 h, MTT
Source text: as §4, §5, §6

[5] = system: Kasumi-1 (acute myeloid leukemia M2 type, AML-M2); test: as above; type: cell-based, human; settings: Homo sapiens, Kasumi 1
Source text: as §4, §5, §6

[6] = system: H9 (acute lymphoblastic leukemia, ALL); test: as above; type: cell-based, human; settings: Homo sapiens; 72 h, MTT
Source text: as §4, §5, §6

[7] = system: RPMI8226 (multiple myeloma); test: Multiple myeloma cell growth inhibition, MTT, 72 h (Example 6); type: cell-based, human; settings: Homo sapiens, RPMI-8226; 72 h, MTT, RPMI8226
Method: Multiple myeloma and lymphoma cell lines: RPMI8226 (multiple myeloma), purchased from Fuxiang Bio-tech Co. Ltd., Shanghai, China.
as §2
Obtaining 6000 well-growing leukemia cells and inoculating them into wells of a 96-well cell culture plate. The culture medium is a 1640 cell culture medium containing 10% fetal bovine serum. After adding the tetrandrine derivatives of different concentrations and mixing uniformly, placing the plate in a carbon dioxide cell incubator (5% CO2) at 37° C. and incubated for 72 hours. Then the viable cell concentration is determined by the MTT method.

[8] = system: Becap37 (human breast cancer cell); test: Solid tumor cell growth inhibition, MTT, 72 h (Example 7); type: cell-based; settings: Homo sapiens; 72 h, MTT, Becap-37
Method: as §1, §2, §3

[9] = system: Huh7 (human liver cancer cell); test: as above; type: cell-based; settings: Homo sapiens; 72 h, MTT, Huh-7
Method: as §1, §2, §3

[10] = system: MGC 803 (human gastric cancer cell); test: as above; type: cell-based; settings: Homo sapiens
Method: as §1, §2, §3

A549 (human lung cancer) = test: as above; type: cell-based; settings: Homo sapiens; 72 h, MTT, A549
Method: as §1, §2, §3

Compound | IC50 (MG63 (osteosarcoma)) [µg/mL] | IC90 (MG63 (osteosarcoma)) [µg/mL] | IC50 (PC-3 (prostate cancer)) [µg/mL] | IC90 (PC-3 (prostate cancer)) [µg/mL] | IC50 [1] [µg/mL] | IC90 [1] [µg/mL] | IC50 [2] [µg/mL] | IC90 [2] [µg/mL] | IC50 [3] [µg/mL] | IC90 [3] [µg/mL] | IC50 [4] [µg/mL] | IC90 [4] [µg/mL] | IC50 [5] [µg/mL] | IC90 [5] [µg/mL] | IC50 [6] [µg/mL] | IC90 [6] [µg/mL] | IC50 [7] [µg/mL] | IC90 [7] [µg/mL] | IC50 [8] [µg/mL] | IC90 [8] [µg/mL] | further results
COc1ccc2cc1Oc1ccc(cc1)C[C@H]1c3cc(c(OC)cc3CCN1C)Oc1c(OC)c(OC)c(COCC3CCOC3)c3c1[C@H](C2)N(C)CC3 (stereo partly drawn) [BS-TE-417] | 1.06 (≈ 1.44 µM) | 3.66 (≈ 4.97 µM) | 4.1 (≈ 5.56 µM) | 7.91 (≈ 10.7 µM) | 2.04 (≈ 2.77 µM) | 12 (≈ 16.3 µM) | 4.66 (≈ 6.32 µM) | 9.5 (≈ 12.9 µM) | 3.64 (≈ 4.94 µM) | 12.1 (≈ 16.5 µM) | 0.88 (≈ 1.19 µM) | 4.63 (≈ 6.28 µM) | 1.8 (≈ 2.44 µM) | 9.69 (≈ 13.1 µM) | 2.03 (≈ 2.75 µM) | 4.37 (≈ 5.93 µM) | 0.27 (≈ 0.366 µM) | 2 (≈ 2.71 µM) | 1.77 (≈ 2.4 µM) | 3.79 (≈ 5.14 µM) | IC50 [9]: 2.48 µg/mL (≈ 3.37 µM); IC90 [9]: 3.76 µg/mL (≈ 5.1 µM); IC50 [10]: 5.09 µg/mL (≈ 6.91 µM); IC90 [10]: 8.27 µg/mL (≈ 11.2 µM); IC50 (A549 (human lung cancer)): 3.88 µg/mL (≈ 5.27 µM); IC90 (A549 (human lung cancer)): 10.1 µg/mL (≈ 13.7 µM)
COc1ccc2cc1Oc1ccc(cc1)C[C@H]1c3cc(c(OC)cc3CCN1C)Oc1c(OC)c(OC)c(COCCn3ccnc3)c3c1[C@H](C2)N(C)CC3 [BS-TE-418] | 1.48 (≈ 1.98 µM) | 4.45 (≈ 5.96 µM) | 4.98 (≈ 6.67 µM) | 9.43 (≈ 12.6 µM) | 1.71 (≈ 2.29 µM) | 9.9 (≈ 13.3 µM) | 4.57 (≈ 6.12 µM) | 9.5 (≈ 12.7 µM) | 2.98 (≈ 3.99 µM) | 13.8 (≈ 18.5 µM) | 1.53 (≈ 2.05 µM) | 3.91 (≈ 5.23 µM) | 1.46 (≈ 1.95 µM) | 7.46 (≈ 9.99 µM) | 2.38 (≈ 3.19 µM) | 5 (≈ 6.69 µM) | 0.15 (≈ 0.201 µM) | 2.12 (≈ 2.84 µM) | 1.98 (≈ 2.65 µM) | 4.4 (≈ 5.89 µM) | IC50 [9]: 3.08 µg/mL (≈ 4.12 µM); IC90 [9]: 5.77 µg/mL (≈ 7.73 µM); IC50 [10]: 4.4 µg/mL (≈ 5.89 µM); IC90 [10]: 6.85 µg/mL (≈ 9.17 µM); IC50 (A549 (human lung cancer)): 4.5 µg/mL (≈ 6.02 µM); IC90 (A549 (human lung cancer)): 11 µg/mL (≈ 14.8 µM)
CCOCc1c2c3c(c(OC)c1OC)Oc1cc4c(cc1OC)CCN(C)[C@H]4Cc1ccc(cc1)Oc1cc(ccc1OC)C[C@@H]3N(C)CC2 [BS-TE-419] | 3.07 (≈ 4.51 µM) | 9.69 (≈ 14.2 µM) | 6.67 (≈ 9.8 µM) | 10.5 (≈ 15.4 µM) | 4.98 (≈ 7.31 µM) | 18.4 (≈ 27.1 µM) | 5.99 (≈ 8.8 µM) | 9.31 (≈ 13.7 µM) | 4.18 (≈ 6.14 µM) | 10.3 (≈ 15.2 µM) | 1.42 (≈ 2.09 µM) | 5.71 (≈ 8.39 µM) | 3.62 (≈ 5.32 µM) | 11.8 (≈ 17.4 µM) | 4.64 (≈ 6.82 µM) | 7.26 (≈ 10.7 µM) | 0.28 (≈ 0.411 µM) | 2.09 (≈ 3.07 µM) | 4.22 (≈ 6.2 µM) | 6.88 (≈ 10.1 µM) | IC50 [9]: 2.54 µg/mL (≈ 3.73 µM); IC90 [9]: 6.16 µg/mL (≈ 9.05 µM); IC50 [10]: 5.16 µg/mL (≈ 7.58 µM); IC90 [10]: 7.5 µg/mL (≈ 11 µM); IC50 (A549 (human lung cancer)): 5.61 µg/mL (≈ 8.24 µM); IC90 (A549 (human lung cancer)): 9.75 µg/mL (≈ 14.3 µM)
